Measured values: patent EP0321100A2, “Piperazine derivatives, their acid addition salts and a process for the preparation of same” (SPOFA spojené podniky pro zdravotnickou vyrobu, priority 1987, dated 1989)
Like-named read-outs stand apart in the source and are kept apart here.

How the values were obtained:
in vivo [1] = details: mouse, po
[2] = target: T1, dopamine D-2 receptors in the rat brain striatum (Rattus norvegicus, UniProt P61169); assay: Inhibition of binding of 3H-spiperone to dopamine D-2 receptors; details: inhibition of binding of 0.5 nM ³H-spiperone, read-out: medium inhibitory concentration IC₅₀
T1 construct: dopamine D-2 receptors in the rat brain striatum; from tissue; host or cells: rat brain striatum
T1 sequence (P61169 whole entry): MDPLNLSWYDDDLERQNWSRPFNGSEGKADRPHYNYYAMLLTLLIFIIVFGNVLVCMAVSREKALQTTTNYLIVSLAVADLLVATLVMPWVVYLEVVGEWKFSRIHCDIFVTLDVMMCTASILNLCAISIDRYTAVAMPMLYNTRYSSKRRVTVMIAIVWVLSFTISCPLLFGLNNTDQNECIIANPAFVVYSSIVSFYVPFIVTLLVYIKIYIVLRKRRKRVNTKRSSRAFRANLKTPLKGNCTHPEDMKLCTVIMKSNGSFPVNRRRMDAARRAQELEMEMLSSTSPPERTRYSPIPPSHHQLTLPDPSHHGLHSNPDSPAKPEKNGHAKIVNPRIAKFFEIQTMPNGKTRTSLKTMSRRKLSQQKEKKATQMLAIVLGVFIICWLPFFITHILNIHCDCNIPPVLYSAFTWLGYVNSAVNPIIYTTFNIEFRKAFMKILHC

[3] = test system: dopamine turnover and metabolism in rat brain striatum; assay: Antidopaminergic activity: effect on dopamine turnover and metabolism (homovanillic acid level) in rat brain; format: in vivo; details: for increase in the concentration of homovanillic acid (% concentration of the metabolite in comparison with the control taken for 100 %): rat brain striatum, oral 80 mg/kg dose; for minimal effective dose: Rattus norvegicus, po, read-out: threshold dose which significantly increased homovanillic acid level
[4] = Depot neuroleptic evaluation (method not described); format: in vivo; details: solution of the base (375 mg/ml) in Miglyol 812
Description: 2-{4-[2-(2-Chloro-10,11-dihydrodibenzo(b,f)thiepin-10-yloxy)ethyl]piperazin 1-yl} ethanol (compound I-A); succinate 3-{4-[2-(2-Chloro-10,11-dihydrodibenzo(b,f)thiepin-10-yloxy)ethyl]piperazin-1-yl} propanol (I-B); bis(hydrogensuccinate) 1-[2-(2-Chloro-10,11-dihydrodibenzo(b,f)thiepin-10-yloxy)ethyl]-4-methylpiperazine (I-C); bis(hydrogensuccinate) 1-[2-(2-Chloro-10,11-dihydrodibenzo(b,f)thiepin-10-yloxy)ethyl]piperazine (I-D); succinate 2-{4-[2-(2-Chloro-10,11-dihydrodibenzo(b,f)thiepin-10-yloxy)ethyl]piperazin-1-yl} ethyl acetate (I-E); bis(hydrogensuccinate) 2-{4-[2-(2-Chloro 10,11-dihydrodibenzo(b,f)thiepin-10-yloxy)ethyl]piperazin-1-yl} ethyl decanoate (I-F); tested as a solution of the base (375 mg/ml) in Miglyol 812 (Trade Mark).

re-uptake of serotonin = assay: Inhibition of re-uptake of serotonin in rat brain; format: biochemical
[5] = test system: re-uptake of noradrenaline; assay: Inhibition of re-uptake of noradrenaline in rat brain; format: biochemical
[6] = Anticholinergic activity in vitro
[7] = Anticholinergic activity in vivo
Maccacus rhesus monkeys = details: rhesus monkey, in vivo, po, 10 mg/kg
in vivo [8] = assay: in vivo; design: species or system mice; details: mouse, po
Method: (§1) Discoordinating effect (rota-rod test in mice), medium effective dose ED₅₀ 44.0 mg/kg, is still […] than for thioridazine (Taeschler M., Cerletti A., Schweiz.Med. Wochschr. 88, 1216, 1958); this is advantageous. […] Adrenolytic activity in mice is very low: an oral dose as high as 100 mg/kg prevents adrenaline-induced lethality in 20 % of the animals.

[9] = test system: apomorphine-induced emesis in dogs; assay: Inhibition of apomorphine-induced emesis in dogs; format: in vivo; details: 10 mg/kg, interval of 4 hours after administration
[10] = test system: adrenaline-induced lethality; assay: Adrenolytic activity in mice (adrenaline-induced lethality); format: in vivo; details: oral dose 100 mg/kg
Method: as §1

[11] = test system: spontaneous locomotor activity in mice; assay: Inhibition of spontaneous locomotor activity in mice, photocell method after Dews; format: in vivo; details: Mus musculus, oral, read-out: medium inhibitory dose D₅₀
[12] = target: T2, dopamine D-1 receptors in rat striatum (Rattus norvegicus, UniProt P18901); assay: Affinity to dopamine D-1 receptors; format: binding
T2 construct: dopamine D-1 receptors in rat striatum; from tissue; host or cells: rat striatum
T2 sequence (P18901 whole entry): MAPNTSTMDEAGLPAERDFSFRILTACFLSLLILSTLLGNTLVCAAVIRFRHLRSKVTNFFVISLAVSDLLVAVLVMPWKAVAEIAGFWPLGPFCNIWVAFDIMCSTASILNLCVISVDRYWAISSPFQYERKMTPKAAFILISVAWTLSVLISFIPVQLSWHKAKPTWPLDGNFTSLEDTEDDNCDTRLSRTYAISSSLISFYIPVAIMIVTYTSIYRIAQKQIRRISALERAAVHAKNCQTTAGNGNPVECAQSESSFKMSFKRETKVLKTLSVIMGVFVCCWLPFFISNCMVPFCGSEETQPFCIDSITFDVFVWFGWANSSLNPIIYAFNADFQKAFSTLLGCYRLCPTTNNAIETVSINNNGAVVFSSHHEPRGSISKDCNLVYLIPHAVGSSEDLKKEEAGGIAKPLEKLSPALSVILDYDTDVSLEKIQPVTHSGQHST

mice = details: reference compound, for comparison, literature citation given; cited from earlier work

CC(=O)OCCN1CCN(CCOC2Cc3cc(Cl)ccc3Sc3ccccc32)CC1 (racemic) [I-E, 2-{4-[2-(2-Chloro-10,11-dihydrodibenzo(b,f)thiepin-10-yloxy)ethyl]piperazin-1-yl} ethyl acetate]
LD50 (in vivo [1]): 691 mg/kg | IC50 [2]: 219 nM | increase in the concentration of homovanillic acid (% concentration of the metabolite in comparison with the control taken for 100 %) [3]: 244%

CCCCCCCCCC(=O)OCCN1CCN(CCOC2Cc3cc(Cl)ccc3Sc3ccccc32)CC1 (racemic) [I-F, 2-{4-[2-(2 Chloro-10,11-dihydrodibenzo(b,f)thiepin-10-yloxy)ethyl]piperazin-1-yl} ethyl decanoate]
duration of neuroleptic action [4]: substantially prolonged action

OCCN1CCN(CCOC2Cc3cc(Cl)ccc3Sc3ccccc32)CC1 (centres unmarked) [I-A, 2-{4-[2-(2-Chloro-10,11-dihydrodibenzo(b,f)thiepin-10-yloxy)ethyl]piperazin-1-yl} ethanol]
inhibition of re-uptake of serotonin (re-uptake of serotonin): weak inhibitor | inhibition of re-uptake of noradrenaline [5]: weak inhibitor | anticholinergic activity [6]: very low | anticholinergic activity [7]: very low | blood pressure (Maccacus rhesus monkeys): do not affect | general behaviour of the animals (Maccacus rhesus monkeys): do not affect | heart rhythm (pulse rate) (Maccacus rhesus monkeys): do not affect | TD50 (in vivo [8]): 44 mg/kg | inhibition of apomorphine-induced emesis [9]: inhibitory effect | prevention of adrenaline-induced lethality, share of the animals [10]: 20% | ED50 [11]: 15.7 mg/kg | LD50 (in vivo [1]): 346 mg/kg | affinity to dopamine D-1 receptors [12]: slight affinity | IC50 [2]: 212 nM | minimal effective dose ([3]; corpus striatum): 20 mg/kg | minimal effective dose ([3]; tuberculum olfactorium): 10 mg/kg | increase in the concentration of homovanillic acid (% concentration of the metabolite in comparison with the control taken for 100 %) [3]: 504%

OCCCN1CCN(CCOC2Cc3cc(Cl)ccc3Sc3ccccc32)CC1 (centres unmarked) [I-B, 3-{4-[2-(2-Chloro-10,11-dihydrodibenzo(b,f)thiepin-10-yloxy)ethyl]piperazin-1-yl} propanol]
LD50 (in vivo [1]): 618 mg/kg | IC50 [2]: 350 nM

CN1CCN(CCOC2Cc3cc(Cl)ccc3Sc3ccccc32)CC1 (centres unmarked) [I-C, 1-[2-(2-Chloro-10,11-dihydrodibenzo(b,f)thiepin-10-yloxy)ethyl]-4-methylpiperazine]
LD50 (in vivo [1]): 401 mg/kg | IC50 [2]: 264 nM

Clc1ccc2c(c1)CC(OCCN1CCNCC1)c1ccccc1S2 (centres unmarked) [I-D, 1-[2-(2-Chloro-10,11-dihydrodibenzo(b,f)thiepin-10-yloxy)ethyl]piperazine]
LD50 (in vivo [1]): 509 mg/kg | IC50 [2]: 1000 nM

CN1CCN(C2=Nc3cc(Cl)ccc3Nc3ccccc32)CC1 [clozapine, reference compound]
acute toxicity, LD₅₀ (mice): 199 mg/kg | ED50 [11]: 1.05 mg/kg
